For 34 compounds, IC50 results are on record in patent publication US20160083391A1, “TRICYCLIC PIPERAZINE DERIVATIVE” (Sunovion Pharmaceuticals Inc., priority 2014, published 2016).

Each structure is given as a SMILES string. A value given as a limit tells only on which side of the number the result lay.

The subject of the assay is PDE1. Nature of the assay: In vitro HTRF PDE1 inhibition assay. In kind it is biochemical. The settings on record: HTRF cGMP assay, 100 nM cyclic GMP, PDE (1A3, 1B or 1C) with calmodulin, 45 minutes at 37° C.; isoform of the tabulated values not stated. The gist of the method:
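Activities are given as IC50 bands (<1, 1-10, >10 μM) derived from a 665/615 nm time-resolved FRET readout after d2-cGMP/anti-cGMP cryptate detection. Enzymes PDE1A3, 1B or 1C plus calmodulin were incubated 45 min at 37 °C with 100 nM cGMP, 1% DMSO, CaCl2/MgCl2 Tris buffer pH 7.4.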
As a reminder, the IC50 is the concentration that gives 50% inhibition. Read a low IC50 as greater potency. On to `CC(C)n1ncc2c(=O)n3c(nc21)CN(c1ccccc1Cl)CC3` [Compound I-85, 8-(2-Chlorophenyl)-1-isopropyl-6,7,8,9-tetrahydropyrazino[1,2-a]pyrazolo[3,4-d]pyrimidin-4(1H)-one], for which the IC50 fell in the range of 1 to 10 µM. Compound `CC(C)c1nnc2c(=O)n3c(nn12)CN(Cc1ccccc1)CC3` [Compound I-223, 7-Benzyl-3-isopropyl-8,9-dihydro-6H-pyrazino[2,1-c][1,2,4]triazolo[3,4-f][1,2,4]triazin-11(7H)-one] came in with an IC50 of 1 to 10 µM. Then `CN1CCn2c(nc3c(cnn3-c3ccccc3)c2=O)C1` [Compound I-19, 8-Methyl-1-phenyl-6,7,8,9-tetrahydropyrazino[1,2-a]pyrazolo[3,4-d]pyrimidin-4(1H)-one], with greater than 10 µM.

`CC(C)c1nnc2c(=O)n3c(nn12)CN(Cc1ccncc1)CC3` [Compound I-245, 3-Isopropyl-7-(pyridin-4-ylmethyl)-8,9-dihydro-6H-pyrazino[2,1-c][1,2,4]triazolo[3,4-f][1,2,4]triazin-11(7H)-one]: the IC50 was greater than 10 µM.

For `CC(C)n1ncc2c(=O)n3c(nc21)CN(Cc1cccc(Cl)c1)CC3` [Compound I-70, 8-(3-Chlorobenzyl)-1-isopropyl-6,7,8,9-tetrahydropyrazino[1,2-a]pyrazolo[3,4-d]pyrimidin-4(1H)-one], the IC50 is less than 1 µM. In the case of `COc1ccc(CN2CCc3nc4c(cnn4C(C)C)c(=O)n3CC2)cc1` [Compound I-157, 1-Isopropyl-8-(4-methoxybenzyl)-7,8,9,10-tetrahydro-1H-pyrazolo[3′,4′:4,5]pyrimido[1,2-d][1,4]diazepin-4(6H)-one], the IC50 was greater than 10 µM. Then `COCCn1ncc2c(=O)n3c(nc21)CN(Cc1ccc(Cl)cc1)CC3` [Compound I-159, 8-(4-Chlorobenzyl)-1-(2-methoxyethyl)-6,7,8,9-tetrahydropyrazino[1,2-a]pyrazolo[3,4-d]pyrimidin-4(1H)-one], with 1 to 10 µM. In turn, `Cc1ccc(CN2CCn3c(nc4c(cnn4C4CCCC4)c3=O)C2)cn1` [Compound I-187, 1-Cyclopentyl-8-((6-methylpyridin-3-yl)methyl)-6,7,8,9-tetrahydropyrazino[1,2-a]pyrazolo[3,4-d]pyrimidin-4(1H)-one] came in with a 50% inhibitory concentration (IC50) of less than 1 µM. In the case of `O=c1c2cnn(C3CCCC3)c2nc2n1CCN(Cc1ccccc1)C2` [Compound I-52, 8-Benzyl-1-cyclopentyl-6,7,8,9-tetrahydropyrazino[1,2-a]pyrazolo[3,4-d]pyrimidin-4(1H)-one], the half-maximal inhibitory concentration (IC50) lay in the range of 1 to 10 µM.

`O=c1c2ncn(C3CCCC3)c2nc2n1CCN(Cc1ccc(Cl)cc1)C2` [Compound I-126, 6-(4-Chlorobenzyl)-3-cyclopentyl-5,6,7,8-tetrahydropyrazino[1,2-a]purin-10(3H)-one] returned an IC50 greater than 10 µM. Then `COc1cncc(N2CCn3c(nc4c(cnn4C(C)C)c3=O)C2)c1` [Compound I-144, 1-Isopropyl-8-(5-methoxypyridin-3-yl)-6,7,8,9-tetrahydropyrazino[1,2-a]pyrazolo[3,4-d]pyrimidin-4(1H)-one], with less than 1 µM; and `CC(C)c1ncc2c(=O)n3c(nn12)CN(c1ccc(C#N)cc1)CC3` [Compound I-238, 4-(3-Isopropyl-11-oxo-8,9-dihydro-6H-imidazo[5,1-f]pyrazino[2,1-c][1,2,4]triazin-7(11H)-yl)benzonitrile], with less than 1 µM; and `CC1NCCn2c1nc1c(cnn1C(C)C)c2=O` (racemic) [Compound I-4, (±)-1-Isopropyl-9-methyl-6,7,8,9-tetrahydropyrazino[1,2-a]pyrazolo[3,4-d]pyrimidin-4(1H)-one], with greater than 10 µM.

As to `CCCn1ncc2c(=O)n3c(nc21)CN(Cc1ccc(OC)cc1)CC3` [Compound I-164, 8-(4-Methoxybenzyl)-1-propyl-6,7,8,9-tetrahydropyrazino[1,2-a]pyrazolo[3,4-d]pyrimidin-4(1H)-one], the IC50 was 1 to 10 µM. In the case of `O=c1c2cnn(-c3ccccc3)c2nc2n1CCN(Cc1ccccc1)C2Cc1ccccc1` (racemic) [Compound I-37, (±)-8,9-Dibenzyl-1-phenyl-6,7,8,9-tetrahydropyrazino[1,2-a]pyrazolo[3,4-d]pyrimidin-4(1H)-one], the IC50 is greater than 10 µM. Then `O=c1c2[nH]nc(C3CCCC3)c2nc2n1CCN(Cc1ccc(Cl)cc1)C2` [Compound I-124, 6-(4-Chlorobenzyl)-3-cyclopentyl-5,6,7,8-tetrahydropyrazino[1,2-a]pyrazolo[4,3-d]pyrimidin-10(1H)-one], with 1 to 10 µM.

For `CC1Cn2c(nc3c(cnn3C(C)C)c2=O)CN1Cc1ccc(F)cc1` (racemic) [Compound I-148, (±)-8-(4-Fluorobenzyl)-1-isopropyl-7-methyl-6,7,8,9-tetrahydropyrazino[1,2-d]pyrazolo[3,4-d]pyrimidin-4(1H)-one], the IC50 was less than 1 µM.

In turn, `CC(C)n1ncc2c(=O)n3c(nc21)CN(C)C(c1ccccc1)C3` (racemic) [Compound I-107, (±)-1-Isopropyl-8-methyl-7-phenyl-6,7,8,9-tetrahydropyrazino[1,2-a]pyrazolo[3,4-d]pyrimidin-4(1H)-one] returned an IC50 greater than 10 µM.

The compound `CC(C)Cc1nnc2c(=O)n3c(nn12)CN(Cc1ccccc1)CC3` [Compound I-214, 7-Benzyl-3-isobutyl-8,9-dihydro-6H-pyrazino[2,1-c][1,2,4]triazolo[3,4-f][1,2,4]triazin-11(7H)-one] gave an IC50 of 1 to 10 µM. Consider `COc1ccc(CN2CCn3c(nc4c(c(C)nn4C4CCCC4)c3=O)C2)cc1` [Compound I-112, 1-Cyclopentyl-8-(4-methoxybenzyl)-3-methyl-6,7,8,9-tetrahydropyrazino[1,2-d]pyrazolo[3,4-d]pyrimidin-4(1H)-one], for which the IC50 was greater than 10 µM. The compound `O=c1c2cnc(C3CCNCC3)n2nc2n1CCN(c1ccc(Cl)cc1)C2` [Compound I-252, 7-(4-Chlorophenyl)-3-(piperidin-4-yl)-8,9-dihydro-6H-imidazo[5,1-f]pyrazino[2,1-c][1,2,4]triazin-11(7H)-one] returned an IC50 of 1 to 10 µM. Regarding `COc1ccc(CN2CCn3c(nc4c(ncn4C4CCCC4)c3=O)C2)cc1` [Compound I-125, 3-Cyclopentyl-6-(4-methoxybenzyl)-5,6,7,8-tetrahydropyrazino[1,2-a]purin-10(3H)-one], the IC50 was greater than 10 µM. The compound `CC1Cn2c(nc3c(cnn3C(C)C)c2=O)CN1Cc1cccc(F)c1` (racemic) [Compound I-149, (±)-8-(3-Fluorobenzyl)-1-isopropyl-7-methyl-6,7,8,9-tetrahydropyrazino[1,2-a]pyrazolo[3,4-d]pyrimidin-4(1H)-one] returned an IC50 of less than 1 µM. Then `COCCn1ncc2c(=O)n3c(nc21)CN(Cc1cccc(Cl)c1)CC3` [Compound I-162, 8-(3-Chlorobenzyl)-1-(2-methoxyethyl)-6,7,8,9-tetrahydropyrazino[1,2-a]pyrazolo[3,4-d]pyrimidin-4(1H)-one], with 1 to 10 µM.

For `COc1ccccc1N1CCn2c(nc3c(cnn3C(C)C)c2=O)C1` [Compound I-94, 1-Isopropyl-8-(2-methoxyphenyl)-6,7,8,9-tetrahydropyrazino[1,2-a]pyrazolo[3,4-d]pyrimidin-4(1H)-one], the 50% inhibitory concentration (IC50) was in the range of 1 to 10 µM. Take `CC(C)n1ncc2c(=O)n3c(nc21)CN(Cc1ccc(-c2ccccc2)cc1)CC3` [Compound I-66, 8-([1,1′-Biphenyl]-4-ylmethyl)-1-isopropyl-6,7,8,9-tetrahydropyrazino[1,2-a]pyrazolo[3,4-d]pyrimidin-4(1H)-one]: the IC50 is 1 to 10 µM. Then `CC1c2nc3c(cnn3C)c(=O)n2CCN1C` (racemic) [Compound I-20, (±)-1,8,9-Trimethyl-6,7,8,9-tetrahydropyrazino[1,2-a]pyrazolo[3,4-d]pyrimidin-4(1H)-one], with greater than 10 µM. Then `CC(C)Cc1nnc2c(=O)n3c(nn12)CN(Cc1ccccn1)CC3` [Compound I-224, 3-Isobutyl-7-(pyridin-2-ylmethyl)-8,9-dihydro-6H-pyrazino[2,1-c][1,2,4]triazolo[3,4-f][1,2,4]triazin-11(7H)-one], with 1 to 10 µM; and `COc1ccc(C(=O)N2CCn3c(nc4c(cnn4C4CCCC4)c3=O)C2)cc1` [Compound I-116, 1-Cyclopentyl-8-(4-methoxybenzoyl)-6,7,8,9-tetrahydropyrazino[1,2-a]pyrazolo[3,4-d]pyrimidin-4(1H)-one], with less than 1 µM; and `CC(C)c1nn(C)c2c(=O)n3c(nc12)C(Cc1ccccc1)N(C)CC3` (racemic) [Compound I-42, (±)-5-Benzyl-3-isopropyl-1,6-dimethyl-5,6,7,8-tetrahydropyrazino[1,2-a]pyrazolo[4,3-d]pyrimidin-10(1H)-one], with greater than 10 µM.

`CC1NCCn2c1nc1c(cnn1-c1ccccc1)c2=O` (racemic) [Compound I-5, (±)-9-Methyl-1-phenyl-6,7,8,9-tetrahydropyrazino[1,2-a]pyrazolo[3,4-d]pyrimidin-4(1H)-one] yielded a half-inhibitory concentration (IC50) greater than 10 µM. Then `CCOc1cccc(N2CCn3c(nc4c(cnn4C(C)C)c3=O)C2)c1` [Compound I-141, 8-(3-Ethoxyphenyl)-1-isopropyl-6,7,8,9-tetrahydropyrazino[1,2-a]pyrazolo[3,4-d]pyrimidin-4(1H)-one], with less than 1 µM; and `COc1ccc(CN2CCn3c(nc4c(cnn4C4CCCC4)c3=O)C2C)cc1` (racemic) [Compound I-118, (±)-1-Cyclopentyl-8-(4-methoxybenzyl)-9-methyl-6,7,8,9-tetrahydropyrazino[1,2-a]pyrazolo[3,4-d]pyrimidin-4(1H)-one], with 1 to 10 µM; and `COc1ccc(CN2CCn3c(nn4c(C(C)C)ncc4c3=O)C2)cc1` [Compound I-178, 3-Isopropyl-7-(4-methoxybenzyl)-8,9-dihydro-6H-imidazo[5,1-f]pyrazino[2,1-c][1,2,4]triazin-11(7H)-one], with less than 1 µM.
